Patent US7622266B2, “Identification of a synthetic ligand for retinoic acid receptor beta” (Institut Pasteur, priority 1987, dated 2009)
Numbered stars: 1 amine (or outer) side, 2 acyl side, 3 side chain; on linkers, the order of the positions; unused ones are H or OH. Bridge positions count the residues as written; N and C are the ends. Square brackets hold non-standard residues; d marks the D form. Peptide text beside a SMILES is read from it. I, II: the chains in the order shown. Actinocin(9to1) = Cc1c2oc3c(C)ccc(C(=O)[*:1])c3nc-2c(C(=O)[*:2])c(N)c1=O; NMeV = CN[C@H](C(=O)O)C(C)C; Sar = CNCC(=O)O

Tests used:
[1] = tested on: RAR α mRNAs in PLC/PRF/5 cells; assay: Northern blot of RAR α mRNAs in PLC/PRF/5 cells; format: cell-based, human; conditions: RA up to 10^−6 M
Description: (§1) More particularly, semi-confluent cells were grown for 6 hr in charcoal stripped medium and retinoic acid was then added to the medium at various concentrations (10^−10 M to 10^−6 M) for 4 hr. Control cells were treated with ethanol (E). Northern-blotting was performed as described in connection with FIG. 9, except that 30 μg of total RNA was used.
(§2) Exposure time was 12 hr for the β probe (FIG. 10B, lower panel) and four days for the α probe (FIG. 10B, upper panel).
(§3) Northern-blotting was carried on using 30 ug of total RNA. […] Exposure times were the same as for the experiments in FIG. 10.
(§4) Human tissue samples were obtained from early autopsies and kept at −80° C. prior to extraction. The HEPG 2 and PLC/PRF/5 hepatoma cell-lines were grown in Dulbecco's modified Eagle's medium with 10% fetal calf serum, glutamine, and antibiotics, in 5% CO2.
The RNA was prepared by the hot phenol procedure (Maniatis et al., 1982). Poly(A)^+ mRNA was prepared by oligo(dT)-cellulose ilchromatography. For Northern-blot analysis, total RNA (30 μg) or poly(A)^+ mRNA (5 μg) was denatured by glyoxal and fractionated on a 1.2% agarose gel (Maniatis et al., 1982). The nucleic acid was transferred to nylon membranes (Amersham) by blotting and attached by UV exposure plus baking. […]

[2] = tested on: RAR β mRNAs in HEPG2 hepatoma cell-line; assay: Northern blot of RAR β mRNAs in HEPG2 cells; format: cell-based, human
Description: as §4
(§5) The RNA was prepared by the hot phenol procedure (Maniatis et al., 1982). Poly(A)^+ mRNA was prepared by oligo(dT)-cellulose ilchromatography. For Northern-blot analysis, total RNA (30 μg) or poly(A)^+ mRNA (5 μg) was denatured by glyoxal and fractionated on a 1.2% agarose gel (Maniatis et al., 1982). The nucleic acid was transferred to nylon membranes (Amersham) by blotting and attached by UV exposure plus baking.
The two cDNA inserts were subcloned into M13 and used to generate high specific activity (greater than 10^9 c.p.m./μg) single-stranded probes by elongation of a sequencing primer with ^32P labelled dTTP (3000 Ci/mmol) and unlabelled nucleotides by Klenow polymerase. The resulting double-stranded DNA was digested using a unique site in the vector, fractioned on a urea/acrylamide sequencing gel, and the labelled single-stranded insert electroeluted. These probes (5×10^6 cpm/ml) were hybridized to the filters in 7% (w/v) sodium dodecyl sulfate (SDS), 0.5 M NaPO4 pH 6.5, 1 mM ethylenediaminetetraacetate (EDTA), and 1 mg/ml bovine serum albumin (BSA) at 68° C. overnight. […]

RAR β = conditions: cited from earlier work
[3] = tested on: transglutaminase expression in HL60 cells; conditions: read-out: ED 50 of RA-dependent transglutaminase expression; cited from earlier work
[4] = tested on: RAR β mRNAs in PLC/PRF/5 cells; format: cell-based, human
Description: as §1, §2, §3, §4, §5
The two cDNA inserts were subcloned into M13 and used to generate high specific activity (greater than 10^9 c.p.m./μg) single-stranded probes by elongation of a sequencing primer with ^32P labelled dTTP (3000 Ci/mmol) and unlabelled nucleotides by Klenow polymerase. The resulting double-stranded DNA was digested using a unique site in the vector, fractioned on a urea/acrylamide sequencing gel, and the labelled single-stranded insert electroeluted. These probes (5×10^6 cpm/ml) were hybridized to the filters in 7% (w/v) sodium dodecyl sulfate (SDS), 0.5 M NaPO4 pH 6.5, 1 mM ethylenediaminetetraacetate (EDTA), and 1 mg/ml bovine serum albumin (BSA) at 68° C. overnight. The filters were washed in 1% SDS, 50 mM NaCl, 1 mM EDTA at 68° C. for 10 min and autoradiographed at −70° C. using Kodak XAR films and intensifying screens. A mouse β actin probe was used to rehybridize the filters and check that all lanes contained equal amounts of RNA.
The relative intensity of hybridization signals in Northern-blotting and run-on experiments was estimated using a Hoefer scanning densitometer and the appropriate computer program.

[5] = molecular target: T1, hap-ER chimaeric receptor (Homo sapiens, UniProt P10826, A104S/D127T/F149Y/F89A/G110A/H125P/I121D/K118G/K128N/K94Y/M120N/N119H/N129Q/N133D/N138K/Q146R/Q92N/R113K/R126A/R139S/S103W/S95A/T123M/T136R/V131T/V135N/Y142A); assay: hap-ER chimaera trans-activation of oestrogen-responsive reporter gene (vit-tk-CAT); format: cell-based; conditions: RA at physiological concentrations
T1 construct: expressed in transfected cells
T1 sequence (P10826 1-448 isoform P10826-2 F82A/Q85N/K87Y/S88A/S96W/A97S/G103A/R106K/K111G/N112H/M113N/I114D/T116M/H118P/R119A/D120T/K121N/N122Q/V124T/N126D/V128N/T129R/N131K/R132S/Y135A/Q139R/F142Y): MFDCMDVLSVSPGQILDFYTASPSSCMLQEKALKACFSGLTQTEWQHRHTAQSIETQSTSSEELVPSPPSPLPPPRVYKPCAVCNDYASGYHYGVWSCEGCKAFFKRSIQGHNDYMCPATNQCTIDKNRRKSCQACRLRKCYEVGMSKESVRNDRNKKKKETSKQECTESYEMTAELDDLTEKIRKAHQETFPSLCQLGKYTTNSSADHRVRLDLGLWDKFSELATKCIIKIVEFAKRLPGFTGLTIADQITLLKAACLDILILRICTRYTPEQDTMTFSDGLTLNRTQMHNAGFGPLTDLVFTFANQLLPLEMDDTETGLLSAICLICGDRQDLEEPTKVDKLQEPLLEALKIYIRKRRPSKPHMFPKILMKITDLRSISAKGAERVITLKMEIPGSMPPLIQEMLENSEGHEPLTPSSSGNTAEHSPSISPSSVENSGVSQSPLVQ
Description: To test the possibility that the hap protein might also be a retinoid receptor, a chimaeric receptor was created by replacing the putative DNA binding domain of hap with that of the human oestrogen receptor (ER). The resulting hap-ER chimaera was then tested for its ability to trans-activate an oestrogen-responsive reporter gene (vit-tk-CAT) in the presence of possible receptor ligands. […] See Nature, 332:850-853 (1988).

[6] = tested on: nuclear extracts from HeLa cells; assay: T3 binding positive control with HeLa nuclear extracts
Text: The results were-negative as well when the experiment was repeated with (3H)-retinol, -retinoic acid, and -testosterone, which represent three putative ligands for hap whose receptors have not yet been cloned. Although it cannot excluded that hap may encode a hormone independent transcriptional activator, it is more likely that hap product, i.e. the hap protein, is α receptor for a presently unidentified hormone.

[7] = molecular target: T2, in vitro translated hap polypeptide (Homo sapiens, UniProt P10826); assay: Hormone-binding assay with in vitro translated hap polypeptide; conditions: reticulocyte lysate; for specific binding of (125I)-labelled thyroid hormone to in vitro translated hap polypeptide: 0° C., filtration; for binding of (3H)-labelled ligand to in vitro translated hap polypeptide: overnight 0° C., Dextran coated charcoal
T2 construct: made in house; host or cells: rabbit reticulocyte lysate (in vitro translation of T7 transcripts of pCOD20)
T2 sequence (P10826 1-448 isoform P10826-2): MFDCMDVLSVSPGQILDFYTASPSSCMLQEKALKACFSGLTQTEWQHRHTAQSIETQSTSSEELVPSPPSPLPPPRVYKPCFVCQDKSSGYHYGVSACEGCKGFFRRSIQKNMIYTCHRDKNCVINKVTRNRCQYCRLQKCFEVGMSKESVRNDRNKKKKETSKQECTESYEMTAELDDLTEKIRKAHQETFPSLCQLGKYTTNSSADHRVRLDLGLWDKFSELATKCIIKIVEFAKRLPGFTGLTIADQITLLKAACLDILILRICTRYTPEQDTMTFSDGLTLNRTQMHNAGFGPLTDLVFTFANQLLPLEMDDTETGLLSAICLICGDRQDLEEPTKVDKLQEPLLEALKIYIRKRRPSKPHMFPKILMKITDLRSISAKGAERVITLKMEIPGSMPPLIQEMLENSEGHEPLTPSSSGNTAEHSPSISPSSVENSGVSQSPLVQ
Text: The ability to express functional receptors in vitro from cloned c-erbA/steroid receptor genes led to the use of an in vitro translation assay to identify a putative hap ligand.
The coding region of hap was cloned into pTZ18 plasmid vector to allow in vitro transcription with the T7 RNA polymerase and subsequent translation in reticulocyte lysates. More particularly, ^35S-methionine-labelled products synthesized using T7 polymerase-catalysed RNA transcripts were separated on a 12% SDS-polyacrylamide gel, which was fluorographed. (DMSO-PPO). The lanes in FIG. 5 are as follows:
pCOD20 and pCOD14 were linearized with HindIII. Capped mRNA was generated using 5 ug of DNA, 5 uM rNTP, 25 mM DTT, 100 U RNAsin (Promega), 50 U T7 Pol (Genofit) in 40 mM Tris pH 8, 8mM MgCl2, 2 mM spermidine, 50 mM NaCl, in 100 ul at 37° C. Capping was performed by omitting GTP and adding CAP (m^7 G (5′) ppp (5′) G) (Pharmacia) for the 15 first minutes of the reaction.
After at least 2 h of incubation at 0° C., free was separated from bound by filtration through millipore HAWP 02500 filters using 10 ml of ice cold buffer. For testosterone, retinol, retinoic acid 10 ul of lysate were added to 45 lambda of 20 mM Tris pH 7.3, 1 mM EDTA, 50 mM NaCl, 2 mM beta-mercaptoethanol and […], […] or […] (81 ci/mmol; 60 Ci/mmol; 46 Ci/mmol; Amersham). After an overnight incubation at 0° C. free was separated from bound by Dextran coated charcoal (0.5% Norit A−0.05% T70) and centrifugation. All experiments were performed in duplicates and parallel experiments were performed with 100 fold excess corresponding cold hormone.

## CC1=C(/C=C/C(C)=C/C=C/C(C)=C/C(=O)O)C(C)(C)CCC1 [RA, All-trans-retinoic acid]
[1]
  effect on the level of RAR α mRNAs: no effect
[2]
  RA-induced stimulation of the levels of RAR β mRNAs: 50 fold
RAR β; RAR-β versus RAR α
  RA concentration for activation of transcription by RAR-β lower than for RAR α: […]
RAR β; read-out: ED 50 of RA-dependent gene transactivation, RAR β
  EC50: […]
[3]
  EC50: 50 nM
[4]; RA 10^−6 M
  latency of induction of RAR β mRNAs: one
  time after which induction of RAR β mRNAs is complete: four
[4]; densitometry of Northern blot, 4 hr
  magnitude of the RA-induced upregulation of RAR β mRNAs: […]
[4]; dose-response 10^−10 M to 10^−6 M, 4 hr
  RA concentration at which stimulatory effect on RAR β mRNAs is already evident: […]
[5]
  inducing the expression of the reporter gene by the hap-ER chimaeric receptor: effective

## N[C@@H](Cc1cc(I)c(Oc2ccc(O)c(I)c2)c(I)c1)C(=O)O [T3, triiodothyronine]
[6]
  binding to nuclear extracts from HeLa cells: detected

## N[C@@H](Cc1cc(I)c(Oc2cc(I)c(O)c(I)c2)c(I)c1)C(=O)O [T4, thyroxine]
[7]
  specific binding of (125I)-labelled thyroid hormone to in vitro translated hap polypeptide: No specific fixation

## Cc1c2oc3c(C)ccc(C(=O)N[C@@H]4C(=O)N[C@H](C(C)C)C(=O)N5CCC[C@H]5C(=O)N(C)CC(=O)N(C)[C@@H](C(C)C)C(=O)O[C@@H]4C)c3nc-2c(C(=O)N[C@@H]2C(=O)N[C@H](C(C)C)C(=O)N3CCC[C@H]3C(=O)N(C)CC(=O)N(C)[C@@H](C(C)C)C(=O)O[C@@H]2C)c(N)c1=O [actinomycin D] (I: T[dV]P[Sar][NMeV] / II: T[dV]P[Sar][NMeV]; ester I:1-I:C, II:1-II:C; linker I:N-II:N via Actinocin(9to1))
[4]; RA 10^−6M, CH 10 μg/ml or AC 5 μg/ml, 4 hr
  effect of inhibitor on the RA-induced increase in the levels of RAR β transcripts: abolished

## CC1=C(/C=C/C(C)=C/C=C/C(C)=C/CO)C(C)(C)CCC1 [retinol]
[7]
  binding of (3H)-labelled ligand to in vitro translated hap polypeptide: negative

## N[C@@H](Cc1ccc(Oc2cc(I)c(O)c(I)c2)c(I)c1)C(=O)O [reverse T3, 3,3′, 5′-triiodo-thyronine]
[7]
  specific binding of (125I)-labelled thyroid hormone to in vitro translated hap polypeptide: No specific fixation

## C[C@]12CC[C@H]3[C@@H](CCC4=CC(=O)CC[C@@]43C)[C@@H]1CC[C@@H]2O [testosterone]
[7]
  binding of (3H)-labelled ligand to in vitro translated hap polypeptide: negative
